Measurements: patent publication US20250283872A1, “EXPRESSION SYSTEMS FOR THE ALPHA2ALPHA5BETA2 NICOTINIC ACETYLCHOLINE RECEPTOR AND METHODS OF USE THEREOF” (Janssen Pharmaceutica NV, priority 2021, published 2025)

Columns and labels:
α2β2 nAChR = α2β2 nAChR (Homo sapiens, UniProt P17787+Q15822); settings: HEK293T cells; co-transfection with FAM163B or TMIE (plus SAT1+CHAT) versus SAT1+CHAT
Experimental: (§1) Then transfer the plate to 30° C. with 5% CO2 in a humidified atmosphere for 24-48 hours.

α2α5β2 nAChR = α2α5β2 nAChR (Homo sapiens, UniProt P17787+P30532+Q15822)
α2α5β2 nAChR, sequence (Q15822 27-529): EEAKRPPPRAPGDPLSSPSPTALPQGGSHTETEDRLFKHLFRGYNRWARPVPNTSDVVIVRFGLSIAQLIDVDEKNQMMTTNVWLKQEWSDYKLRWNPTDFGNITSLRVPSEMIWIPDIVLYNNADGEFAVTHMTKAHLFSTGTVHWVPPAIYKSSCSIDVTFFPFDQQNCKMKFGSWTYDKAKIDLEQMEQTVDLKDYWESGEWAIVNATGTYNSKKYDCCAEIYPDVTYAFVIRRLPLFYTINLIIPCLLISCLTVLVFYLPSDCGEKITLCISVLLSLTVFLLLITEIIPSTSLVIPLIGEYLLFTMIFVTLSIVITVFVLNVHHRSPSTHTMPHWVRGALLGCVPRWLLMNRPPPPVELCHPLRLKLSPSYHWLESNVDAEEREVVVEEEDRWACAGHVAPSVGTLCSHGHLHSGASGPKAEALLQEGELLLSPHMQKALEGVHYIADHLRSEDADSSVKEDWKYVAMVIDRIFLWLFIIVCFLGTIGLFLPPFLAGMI
α2α5β2 nAChR, sequence (P30532 23-468): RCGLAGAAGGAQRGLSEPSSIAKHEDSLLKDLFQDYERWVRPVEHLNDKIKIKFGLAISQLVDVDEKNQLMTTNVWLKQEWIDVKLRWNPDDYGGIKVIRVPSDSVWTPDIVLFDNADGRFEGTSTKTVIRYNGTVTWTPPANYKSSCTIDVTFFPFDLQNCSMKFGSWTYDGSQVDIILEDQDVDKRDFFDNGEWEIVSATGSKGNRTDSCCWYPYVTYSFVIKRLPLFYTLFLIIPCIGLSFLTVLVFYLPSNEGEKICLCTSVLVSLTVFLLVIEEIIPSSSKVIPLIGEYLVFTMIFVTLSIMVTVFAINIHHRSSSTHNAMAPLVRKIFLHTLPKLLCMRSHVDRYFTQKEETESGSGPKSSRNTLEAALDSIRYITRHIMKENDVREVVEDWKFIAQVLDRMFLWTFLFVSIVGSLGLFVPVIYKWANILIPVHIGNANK
α2α5β2 nAChR, sequence (P17787 26-502): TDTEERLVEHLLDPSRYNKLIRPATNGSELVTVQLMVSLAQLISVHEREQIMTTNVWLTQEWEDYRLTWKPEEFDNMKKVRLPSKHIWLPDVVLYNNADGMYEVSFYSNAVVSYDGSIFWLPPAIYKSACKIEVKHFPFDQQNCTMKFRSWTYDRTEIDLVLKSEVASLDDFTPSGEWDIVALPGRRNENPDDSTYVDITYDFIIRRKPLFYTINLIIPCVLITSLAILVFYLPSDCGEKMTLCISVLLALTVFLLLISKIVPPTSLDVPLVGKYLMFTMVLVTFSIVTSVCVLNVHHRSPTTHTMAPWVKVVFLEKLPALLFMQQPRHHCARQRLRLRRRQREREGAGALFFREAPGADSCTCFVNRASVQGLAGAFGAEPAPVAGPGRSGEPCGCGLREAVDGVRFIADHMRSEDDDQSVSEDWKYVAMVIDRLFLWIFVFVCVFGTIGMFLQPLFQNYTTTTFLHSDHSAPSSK
Experimental: as §1

α2β2 nAChR, sequence (Q15822 27-529): as the sequence (Q15822 27-529) above
α2β2 nAChR, sequence (P17787 26-502): as the sequence (P17787 26-502) above

CN1CCCC1c1cccnc1 (stereo not drawn) [nicotine, Nicotine]
nicotine potency (nicotine-evoked calcium flux, FIG. 2) (α2β2 nAChR): left shifted
nicotine potency (nicotine-evoked calcium flux, FIG. 2) (α2α5β2 nAChR; HEK293T cells, co-transfection with FAM163B or TMIE (plus SAT1+CHAT) versus SAT1+CHAT): left shifted
EC80 (nicotine-evoked α2α5β2 nAChR mediated calcium flux) (α2α5β2 nAChR; recombinant cells, Ca5 dye, FLIPR TETRA): 1 µM
